Test results: patent US10869874B2, “Methods and compositions for topical delivery of prostaglandins to subcutaneous fat” (Topokine Therapeutics, Inc., priority 2013, dated 2020)

How the values were obtained:
abdominal fat = experiment: randomized placebo-controlled trial for reduction of abdominal fat; assay type: in vivo, human; details: compared to vehicle alone
Excerpt: The following experiment describes a randomized, placebo-controlled, double-blind trial in human subjects to test whether the safety and efficacy of a PFPRA pharmaceutical composition for reduction of abdominal fat. The composition can be, for example, as described in Example 1, wherein the PFPRA is latanoprost. Alternatively, the PFPRA can be tafluprost. Other alternatives within the scope of the invention can also be used. Eligible subjects (for example, n=60) with excess anterior abdominal fat are entered into a randomized double-blind study. […] Subjects are instructed to apply, once a day, a metered dose, for example, of 2 ml over a 200 cm^2 application area on the anterior abdomen. The application area is standardized, for example, by use of a template that is centered on the umbilicus. Serial clinical assessments, subjective patient assessments, photographs, and magnetic resonance imaging (MRI) scans are performed prior to the first dose and then, for example, at 6 and 12 weeks. Treatment continues, for example, for a total of 12 weeks.

[1] = skin permeation ex vivo, Franz-type diffusion cell; assay type: in vitro ADME, human; details: free acid recovered in dermis and receptor fluid
Experimental: Skin permeation studies were conducted with various formulations of latanoprost, ex vivo, on fresh human skin. Fresh human skin was obtained from live donors undergoing abdominoplasty and mounted on a standard (Franz-type) diffusion cell apparatus. All test articles contained 0.8% (weight/weight) of latanoprost. Each test article (8 mg) was uniformly applied to a skin surface of 0.8 cm^2. All formulations were tested on skin from at least two different donors. Treated skin was left open to the atmosphere to simulate clinical conditions. Receptor fluid flowed continuously over 24 hours and was collected in fractions. The amount of active drug metabolite (latanoprost free acid) in these fractions was determined by Liquid Chromatography/Tandem Mass Spectrometry. The following amounts of drug were recovered from receptor fluid over 24 hours:
Skin permeation studies were conducted with various formulations of latanoprost 0.5%, ex vivo, on fresh human skin, as described in the foregoing example. All formulations comprised ethanol (70%) and oleic acid (1.5%, 3% or 4.5%) with the remainder essentially as propylene glycol (28.5%, 27% or 25.5%, respectively). All studies were run in duplicate.

With `CC(C)OC(=O)CCC/C=C\C[C@@H]1[C@@H](/C=C/C(F)(F)COc2ccccc2)[C@H](O)C[C@@H]1O` [tafluprost] as the compound, how does the “satisfaction with cosmetic appearance” value (abdominal fat) read?
Its value is “more satisfied with their cosmetic appearance”.

Which “satisfaction with cosmetic appearance” value (abdominal fat) does the source give for `CC(C)OC(=O)CCC/C=C\C[C@@H]1[C@@H](CC[C@@H](O)CCc2ccccc2)[C@H](O)C[C@@H]1O` [latanoprost] here?
The value was “more satisfied with their cosmetic appearance”.

What about the “conversion of prodrug in skin samples” value [1] of the same compound?
The value was “converted (hydrolyzed) to the active metabolite, latanoprost free acid”.
